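The compound was tested at five concentrations on cells cultured in 96-well plates, with a 48-hour exposure period. Definition used: TGI = concentration required for complete inhibition of growth.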
What was measured:
Assay in all cases: growth of human tumour cells (NCI), 48 h
SF-268 CNS = system: SF-268 CNS
U251 CNS = system: U251 CNS
EKVX NSCLC = system: EKVX NSCLC
TK-10 renal = system: TK-10 renal
UACC-257 melanoma = system: UACC-257 melanoma
786-0 renal = system: 786-0 renal
RXF 393 renal = system: RXF 393 renal
SK-MEL-5 melanoma = system: SK-MEL-5 melanoma
IGROV1 ovarian = system: IGROV1 ovarian
SNB-75 CNS = system: SNB-75 CNS
HT29 colon = system: HT29 colon
OVCAR-5 ovarian = system: OVCAR-5 ovarian
RPMI-8226 leukemia = system: RPMI-8226 leukemia
UO-31 renal = system: UO-31 renal
CAKI-1 renal = system: CAKI-1 renal
OVCAR-4 ovarian = system: OVCAR-4 ovarian

| SMILES | TGI (SF-268 CNS) [µM] | TGI (U251 CNS) [µM] | TGI (EKVX NSCLC) [µM] | TGI (TK-10 renal) [µM] | TGI (UACC-257 melanoma) [µM] | TGI (786-0 renal) [µM] | TGI (RXF 393 renal) [µM] | TGI (SK-MEL-5 melanoma) [µM] | TGI (IGROV1 ovarian) [µM] | TGI (SNB-75 CNS) [µM] | TGI (HT29 colon) [µM] | TGI (OVCAR-5 ovarian) [µM] | TGI (RPMI-8226 leukemia) [µM] | TGI (UO-31 renal) [µM] | TGI (CAKI-1 renal) [µM] | TGI (OVCAR-4 ovarian) [µM] |
| --- | --- | --- | --- | --- | --- | --- | --- | --- | --- | --- | --- | --- | --- | --- | --- | --- |
| COC(=O)NN=C1C(C)(C)C(=O)C1(C)C | > 100 | > 100 | > 100 | > 100 | > 100 | > 100 | > 100 | > 100 | > 100 | > 100 | > 100 | > 100 | > 100 | > 100 |  |  |
| NC(CCC(=O)NC(CSC(=O)N(O)c1ccccc1)C(=O)NCC(=O)O)C(=O)O (centres undefined) | > 1000 | > 1000 | > 1000 | > 1000 | > 1000 | > 1000 | > 1000 | > 1000 | > 1000 | > 1000 | > 1000 | > 1000 |  | > 1000 | > 1000 | > 1000 |
| CSc1sc(=S)sc1C(=O)N(C)c1ccccc1 | > 100 | > 100 | > 100 | > 100 |  | > 100 | > 100 | > 100 | > 100 | 82.5 | > 100 | > 100 | > 100 | > 100 |  | > 100 |
| COC(=O)NC12CC3CC(CC(F)(C3)C1)C2 |  | > 100 | > 100 | > 100 | > 100 | > 100 | > 100 |  | > 100 | > 100 | > 100 | > 100 | > 100 | > 100 |  |  |
| Cn1ccc2c(C(=O)c3ccccc3)cccc2c1=O | > 100 |  | > 100 | > 100 | > 100 | > 100 | > 100 | > 100 | > 100 | 72.3 | > 100 |  | > 100 |  | > 100 | > 100 |
| COc1ccc2c(c1)Oc1cc(O)ccc1[C@@H]2c1ccccc1C(=O)NC(C)c1ccccc1 (some centres undefined) | 52.8 | 28.8 | 31.5 | 50.7 | 32.7 | 27.9 | 29.9 | 32.2 | 41.3 | 36.3 | 34 | 30.5 | 39.1 | 34.1 | 42.2 |  |
| O=C(c1ccccc1)[C@@H]1C[C@H](Sc2ccccc2)c2cc(Cl)ccc2N1 | 48.4 | 60.1 | 50.3 | 79.6 | 37.4 | 33.6 | 26.5 | 26.9 | > 100 | 58.7 | 56.3 | > 100 | > 100 | 56.7 | > 100 | > 100 |
| O=C(O)CCc1cccc2c1oc1c(CCC(=O)O)cccc12 | > 100 | > 100 |  | > 100 | > 100 | > 100 | > 100 | > 100 | > 100 | > 100 | > 100 | > 100 | > 100 | > 100 | > 100 | > 100 |
| CC(O)c1ccc[n+](Cc2ccccc2)c1 (centres undefined) | > 400 | > 400 | > 400 | > 400 | > 400 | > 400 | > 400 | > 400 | > 400 |  | > 400 | > 400 | > 400 |  | > 400 |  |
| N#CCCN(c1ccc(C=Nc2ccccc2Cl)cc1)S(=O)(=O)c1ccccc1 | > 100 | > 100 | > 100 | > 100 | > 100 | > 100 | > 100 | > 100 | > 100 | > 100 | > 100 | > 100 | > 100 | > 100 | > 100 | > 100 |
| CC1=NN(C(=O)CC(=O)NC(=O)CC(=O)Nc2ccccc2F)C(=O)C1N=Nc1ccc([N+](=O)[O-])cc1 (centres undefined) | > 100 | 50 | 96.2 | > 100 | 76.1 | 64.6 |  | > 100 | > 100 | 98.2 | 45.9 | > 100 | 46.3 | 84.2 | > 100 | > 100 |
| COc1ccc(N2C(=O)C3c4[nH]c5ccccc5c4C4CC(C)CC(C)C4C3C2=O)cc1 (centres undefined) | > 100 | > 100 | > 100 |  | > 100 | > 100 | > 100 | > 100 | > 100 | > 100 | > 100 |  | > 100 | > 100 |  | > 100 |
| CCCCCCCCCCCCCCCCOCC(CP(=O)([O-])OCC[n+]1ccccc1)OC (centres undefined) | 24.9 |  | 34.7 | 8.09 | 28.8 | 28.7 |  | 27.7 | 17.6 | 22.3 | 15.9 |  | 11.8 | 21.2 | 22.2 | 24.1 |
